# Reference: PubChem BioAssay AID624317 (Sanford-Burnham Center for Chemical Genomics, 2012)
# Molecular target: Probable nicotinate-nucleotide adenylyltransferase (Staphylococcus aureus (strain N315)) (UniProt P65502)
# Assay: inhibitors of S. aureus NadD, dose response, biochemical, colorimetric, uHTS hits (AID 624317)
# Settings: purified NadD enzyme, colorimetric activity assay
# Probable nicotinate-nucleotide adenylyltransferase (Staphylococcus aureus (strain N315)), sequence (P65502 whole entry, looked up): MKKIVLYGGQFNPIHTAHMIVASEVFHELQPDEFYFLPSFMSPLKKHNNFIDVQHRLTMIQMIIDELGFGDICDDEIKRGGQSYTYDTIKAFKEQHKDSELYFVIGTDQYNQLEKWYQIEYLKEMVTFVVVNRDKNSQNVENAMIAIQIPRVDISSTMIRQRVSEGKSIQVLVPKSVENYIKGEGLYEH
smiles,measurement,value
C[c-]1[c-](C)[c-](C)[c-](C)[c-]1C.[Fe].c1cc2nccc(N3CCCC3)[c-]2c1 (stereo unspecified),IC50,35.9 µM
